Experimental findings from patent publication US20210186970A1, “SELECTIVE CALCIUM CHANNEL ANTAGONISTS” (Northwestern University, priority 2011, published 2021) are described below.

Structures are written as SMILES. Where “and” joins values, the source holds several entries; their conditions need not be identical. Equal entries are not always repeated.

Series [1] has as its target T1, Cav1.3 L-type Ca channels (Rattus norvegicus, UniProt P27732).
T1 construct: expressed in transfected cells; host or cells: HEK293
Nature of the series: FLIPR Fluo-8 calcium assay, Cav1.3 channel inhibition in HEK293 cells. As to conditions: for selectivity for Cav1.3 over Cav1.2: ratio of IC50 values for the two cell lines. It is filed as cell-based.

The next series concerns the target T2, Cav1.3 (α1D) LTCC (Rattus norvegicus, UniProt P27732).
T2 construct: expressed in transfected cells; host or cells: HEK-293, stably transfected
Briefly: Whole-cell voltage-clamp recordings, Cav1.3 LTCC in HEK293 cells. It is filed as cell-based. On the procedure:
(§1) Using the same cell lines from the initial screening, whole-cell voltage clamp recordings were made of either Cav1.3 LTCC or Cav1.2 LTCC containing HEK293 cells in the absence or presence of SKP00 4C08 at 1 μM. Bath application of SKP00 4C08 blocks ˜35% of the Cav1.3 channel current. SKP00 4C08 at the same concentration had no effect on Cav1.2 channel currents.
(§2) Bioactivity Confirmation Using Whole-cell Patch Clamp. Because IC50 values depend strongly on assay conditions, the inhibitory activity of compound 8 (SKP00 4C08) was confirmed at Cav1.3 and Cav1.2 channels in HEK293 cells by whole-cell voltage-clamp electrophysiological recordings (FIG. 8).
(§3) Whole-cell voltage-clamp recordings (FIG. 8A) were made in the absence (black, top) or presence (red, top) of compound 8 (SKP00 4C08) (5 μM). Superfusion of selected PYT blocks evoked barium currents in both LTCC cell lines in keeping with the data from our initial screen (FIG. 5B).
General Procedure for Whole-cell Patch Clamp. HEK-293 cells were stably transfected with rat Cav1.3 (α1D) or rabbit Cav1.2 (α1C), Cavβ3, and Cavα2δ-1 and were cultured as previously reported (Chan et al. (2007) Nature 447:1081-1086.; herein incorporated by reference in its entirety). After 24-48 h of incubation at 37° C., cells underwent whole-cell patch-clamp electrophysiology. The external solution contained the following (in mM): 140 NaCl, 1 MgCl2, 10 BaCl2, 10 HEPES, 10 dextrose, 10 sucrose, and 20 CsCl at pH 7.4 and an osmolarity of ˜320 mOSml^−1. The test compound stock solutions in DMSO (10 mM or just DMSO) were diluted with the external solution to the desired concentration (10^−9 to 10^−6M), which was perfused (2 mL/min) into the bath while measuring the evoked barium currents. For experiments where dose-response curves were obtained, local perfusion of the desired concentration was employed. Barium currents were measured from whole-cell voltage patch-clamp recordings using a Pulse 8.4 software data acquisition system (HEKA, Germany). […] Electrophysiological signals were analyzed using […] […]

The target of series [2] is T3, Cav1.2 (α1C) L-type calcium channel (Oryctolagus cuniculus, UniProt P15381).
T3 construct: expressed in transfected cells; host or cells: HEK-293, stably transfected
Nature of the series: Whole-cell voltage-clamp recordings, Cav1.2 LTCC in HEK293 cells. The format is cell-based, rabbit. Particulars: rabbit, pH 7.4; 5 μM, whole-cell voltage clamp; read-out: inhibition of Cav1.2 channels. On the procedure:
as §1, §2, §3
(§4) General Procedure for Whole-cell Patch Clamp. […] Barium currents were measured from whole-cell voltage patch-clamp recordings using a Pulse 8.4 software data acquisition system (HEKA, Germany). […] Electrophysiological signals were analyzed using […] […]

The next series has as its target T4, Cav1.2 (α1C) LTCC (Oryctolagus cuniculus, UniProt P15381).
T4 construct: expressed in transfected cells; host or cells: HEK-293, stably transfected
The series is described as above. The format is cell-based, rabbit. Particulars: 1 μM. On the procedure: as §1, §2, §3, §4

The target of series [3] is Cav1.2 L-type Ca channels (Oryctolagus cuniculus, UniProt P15381). Briefly: FLIPR Fluo-8 calcium assay, Cav1.2 channel inhibition in HEK293 cells.

T1 sequence (P27732 whole entry): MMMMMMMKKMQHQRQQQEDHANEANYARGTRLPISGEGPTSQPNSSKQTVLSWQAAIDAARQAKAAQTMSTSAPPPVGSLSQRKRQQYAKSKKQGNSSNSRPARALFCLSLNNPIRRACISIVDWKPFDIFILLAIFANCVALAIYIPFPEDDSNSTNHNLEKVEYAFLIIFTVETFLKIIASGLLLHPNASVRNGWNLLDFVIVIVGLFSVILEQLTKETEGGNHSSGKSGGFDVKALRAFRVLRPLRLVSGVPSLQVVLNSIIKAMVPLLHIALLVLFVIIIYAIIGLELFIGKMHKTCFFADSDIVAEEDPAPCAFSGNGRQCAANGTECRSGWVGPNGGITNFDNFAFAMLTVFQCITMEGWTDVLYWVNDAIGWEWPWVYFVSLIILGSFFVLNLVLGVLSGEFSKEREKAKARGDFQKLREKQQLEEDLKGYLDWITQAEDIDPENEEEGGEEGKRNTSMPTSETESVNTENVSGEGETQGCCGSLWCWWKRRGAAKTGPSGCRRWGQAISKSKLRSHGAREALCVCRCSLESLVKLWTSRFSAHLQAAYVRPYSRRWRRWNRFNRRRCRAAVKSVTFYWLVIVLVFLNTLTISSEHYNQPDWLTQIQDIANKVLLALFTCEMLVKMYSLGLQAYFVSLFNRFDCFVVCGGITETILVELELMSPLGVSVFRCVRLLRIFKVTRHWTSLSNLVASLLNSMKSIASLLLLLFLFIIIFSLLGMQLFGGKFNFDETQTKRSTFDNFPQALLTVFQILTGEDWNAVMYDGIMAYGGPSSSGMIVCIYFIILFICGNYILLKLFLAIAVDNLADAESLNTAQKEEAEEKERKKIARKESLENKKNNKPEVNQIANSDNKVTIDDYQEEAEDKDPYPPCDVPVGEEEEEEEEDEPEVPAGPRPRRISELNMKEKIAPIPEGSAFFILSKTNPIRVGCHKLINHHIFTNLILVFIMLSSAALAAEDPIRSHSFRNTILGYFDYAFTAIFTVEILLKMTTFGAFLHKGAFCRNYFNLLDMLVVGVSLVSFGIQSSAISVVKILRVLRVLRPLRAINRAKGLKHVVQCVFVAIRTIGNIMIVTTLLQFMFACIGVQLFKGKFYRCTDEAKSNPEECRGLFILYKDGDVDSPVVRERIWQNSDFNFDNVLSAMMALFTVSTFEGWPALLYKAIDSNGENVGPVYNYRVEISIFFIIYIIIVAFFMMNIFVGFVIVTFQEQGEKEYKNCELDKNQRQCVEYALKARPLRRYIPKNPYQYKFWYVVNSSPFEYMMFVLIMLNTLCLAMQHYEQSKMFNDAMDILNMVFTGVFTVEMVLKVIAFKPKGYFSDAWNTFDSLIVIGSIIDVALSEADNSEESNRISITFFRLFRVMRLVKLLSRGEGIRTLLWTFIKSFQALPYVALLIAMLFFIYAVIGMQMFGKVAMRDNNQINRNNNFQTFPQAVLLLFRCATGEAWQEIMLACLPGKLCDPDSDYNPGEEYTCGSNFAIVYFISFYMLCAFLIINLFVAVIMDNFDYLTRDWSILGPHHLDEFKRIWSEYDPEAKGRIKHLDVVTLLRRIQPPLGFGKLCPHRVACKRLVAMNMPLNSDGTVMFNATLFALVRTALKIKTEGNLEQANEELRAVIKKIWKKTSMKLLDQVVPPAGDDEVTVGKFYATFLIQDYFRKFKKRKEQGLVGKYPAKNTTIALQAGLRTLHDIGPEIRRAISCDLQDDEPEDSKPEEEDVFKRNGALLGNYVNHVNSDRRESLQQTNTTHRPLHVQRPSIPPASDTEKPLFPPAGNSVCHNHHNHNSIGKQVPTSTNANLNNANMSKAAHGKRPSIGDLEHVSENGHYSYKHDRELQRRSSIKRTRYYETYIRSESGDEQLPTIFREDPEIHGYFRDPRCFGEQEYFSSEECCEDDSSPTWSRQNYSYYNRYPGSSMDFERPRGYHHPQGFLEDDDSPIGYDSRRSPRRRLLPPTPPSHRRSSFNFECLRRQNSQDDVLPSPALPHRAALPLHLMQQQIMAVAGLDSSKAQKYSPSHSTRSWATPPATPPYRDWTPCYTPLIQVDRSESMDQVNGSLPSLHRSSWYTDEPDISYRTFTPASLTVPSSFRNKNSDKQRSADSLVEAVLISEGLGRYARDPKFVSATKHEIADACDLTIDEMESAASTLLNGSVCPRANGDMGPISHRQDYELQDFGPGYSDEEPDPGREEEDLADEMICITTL
T1 sequence (P54284 whole entry partner): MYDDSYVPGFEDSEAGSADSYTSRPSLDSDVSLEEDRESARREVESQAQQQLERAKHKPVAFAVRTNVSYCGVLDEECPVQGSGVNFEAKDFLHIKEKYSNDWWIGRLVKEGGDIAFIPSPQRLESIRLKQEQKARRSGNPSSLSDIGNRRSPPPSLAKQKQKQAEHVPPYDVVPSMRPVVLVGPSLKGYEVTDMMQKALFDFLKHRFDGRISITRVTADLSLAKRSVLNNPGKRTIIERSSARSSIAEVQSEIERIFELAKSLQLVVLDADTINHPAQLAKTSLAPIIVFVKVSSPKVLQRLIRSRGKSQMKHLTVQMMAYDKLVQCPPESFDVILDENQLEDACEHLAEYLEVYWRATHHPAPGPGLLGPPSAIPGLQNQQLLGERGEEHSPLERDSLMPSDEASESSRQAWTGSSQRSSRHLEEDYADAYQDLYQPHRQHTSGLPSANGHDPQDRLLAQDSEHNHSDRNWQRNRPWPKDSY
T1 sequence (P54289 25-956 partner limits assumed): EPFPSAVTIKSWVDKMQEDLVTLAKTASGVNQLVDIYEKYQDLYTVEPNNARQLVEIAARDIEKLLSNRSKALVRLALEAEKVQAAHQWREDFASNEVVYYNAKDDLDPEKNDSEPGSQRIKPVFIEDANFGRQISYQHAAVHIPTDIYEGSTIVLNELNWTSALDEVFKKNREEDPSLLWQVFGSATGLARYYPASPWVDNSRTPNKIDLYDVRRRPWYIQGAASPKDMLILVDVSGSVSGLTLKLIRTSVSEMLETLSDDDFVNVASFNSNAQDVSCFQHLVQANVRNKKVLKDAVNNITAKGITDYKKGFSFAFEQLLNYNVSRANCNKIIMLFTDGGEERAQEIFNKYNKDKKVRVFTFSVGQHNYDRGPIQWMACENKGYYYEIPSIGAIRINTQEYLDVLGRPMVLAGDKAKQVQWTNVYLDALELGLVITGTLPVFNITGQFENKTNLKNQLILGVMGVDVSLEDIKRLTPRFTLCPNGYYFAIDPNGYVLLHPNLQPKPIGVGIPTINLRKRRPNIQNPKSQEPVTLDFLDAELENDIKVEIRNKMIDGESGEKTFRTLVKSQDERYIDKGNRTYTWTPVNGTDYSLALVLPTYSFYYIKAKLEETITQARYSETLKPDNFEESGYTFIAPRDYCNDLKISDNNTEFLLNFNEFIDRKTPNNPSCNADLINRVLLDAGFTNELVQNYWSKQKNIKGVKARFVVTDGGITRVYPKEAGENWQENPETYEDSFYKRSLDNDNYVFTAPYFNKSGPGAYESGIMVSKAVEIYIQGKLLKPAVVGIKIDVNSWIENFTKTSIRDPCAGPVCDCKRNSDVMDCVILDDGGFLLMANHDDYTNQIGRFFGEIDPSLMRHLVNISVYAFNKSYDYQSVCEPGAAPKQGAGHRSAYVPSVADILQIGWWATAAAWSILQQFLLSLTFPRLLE
T1 sequence (P54289 957-1103 partner limits assumed): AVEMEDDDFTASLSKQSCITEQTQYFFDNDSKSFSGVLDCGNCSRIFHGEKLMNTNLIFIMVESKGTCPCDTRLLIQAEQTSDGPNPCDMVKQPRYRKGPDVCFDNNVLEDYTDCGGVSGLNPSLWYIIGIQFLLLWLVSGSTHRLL
T2 sequence (P27732 whole entry): as the sequence (P27732 whole entry) above
T2 sequence (P54284 whole entry partner): as the sequence (P54284 whole entry partner) above
T2 sequence (P54289 25-956 partner limits assumed): as the sequence (P54289 25-956 partner limits assumed) above
T2 sequence (P54289 957-1103 partner limits assumed): as the sequence (P54289 957-1103 partner limits assumed) above

Usually IC50 stands for the concentration at which inhibition is half-maximal. In general, inhibition refers to the drop in the measured response relative to a control, in per cent. The melting point is the temperature, or range, at which the solid turns liquid. As to `O=C1CC(=O)N(C2CCCC2)C(=O)N1CCc1cccc(Cl)c1` [Compound 8, N-(3-chlorophenethyl)-N′-cyclopentyl-pyrimidine-2,4,6-(1H,3H,5H)-trione], the melting point lay in the range of 131 to 132 °C. Also, in series [1] (IC50 (μM) Cav1.3, Table 4, 12 concentration points (0.1 nM~100 μM) in duplicate), the IC50 was found to be 1.7 µM. Moreover, the IC50 in series [1] (IC50 (μM) Cav1.3, third library, FLIPR, HEK293, value (±SD)) is 1.7 µM. Further, the IC50 in series [1] (IC50 with Cav1.3) is 1.61 µM and 1.7 µM. Moreover, the Selectivity in series [1] (Table 4, Cav1.3 relative to Cav1.2 from IC50 values) came out at 1008. The “inhibition ratio Cav1.3 vs Cav1.2, FLIPR assay” value in series [1] (at 5.5 (unit not given)) is 11 fold. Besides, the “selectivity for Cav1.3 over Cav1.2” value in series [1] is 1000 fold. In series [1] (listed as SKP00 4C08), the “selectivity for Cav1.3 over Cav1.2” value is listed as “greater than 1000 fold”. In addition, the Selectivity in series [1] (third library, ratio of IC50 Cav1.2 to Cav1.3) is 1008.2. Besides, the “block of Cav1.3 channel current” value at Cav1.3 (α1D) LTCC (1 μM, bath application) is recorded as about 35%. Besides, the “inhibition ratio Cav1.3 vs Cav1.2” value on Cav1.3 (α1D) LTCC (5 μM, whole-cell voltage clamp) is recorded as “roughly 12 fold”. The inhibition at 5 µM at Cav1.3 (α1D) LTCC (HEK293, 5 μM, whole-cell voltage clamp, read-out: inhibition of Cav1.3 channels) stood at 43.8 ± 11%. Moreover, in series [2], the inhibition at 5 µM was 3.8 ± 2.9%. The “effect on Cav1.2 channel currents” value on Cav1.2 (α1C) LTCC is “no effect”. The IC50 in series [3] (IC50 (μM) Cav1.2, Table 4, 12 concentration points (0.1 nM~100 μM) in duplicate) was found to be 1730 µM. For the same compound, in series [3] (IC50 (μM) Cav1.2, third library, FLIPR, HEK293, value (±SD)), the IC50 was determined as 1730 µM.
